{"source": "patent US11203615B2", "about": "“Cancer treatment drug” (NATIONAL UNIVERSITY CORPORATION HOKKAIDO UNIVERSITY, priority 2017, dated 2021)", "key": {"[1]": {"system": "Human pancreatic cancer cells (PK-9)", "test": "Tumor growth in nude mice with PK-9 cells transplanted on the back, intraperitoneal administration", "type": "in vivo, nude mouse", "settings": "i.p. five times per week, day 7 to day 35 after transplantation", "experimental": "Human pancreatic cancer cells (PK-9) were transplanted to the back of each nude mouse (Balb/cA Jcl nu/nu mice, female, distributor: CLEA Japan, Inc.). The peptide of the present invention RRRRRRRRRRR-GGG-MGLKMSCLKGFQMCV (SEQ ID NO: 4), the peptide RRRRRRRRRRR-GGG-MGLKMAAAKGFQAAA (SEQ ID NO: 8), or PBS was intraperitoneally administered five times per week from day 7 to day 35 after the transplantation. During this period, body weight and tumor volume of the animals were measured, and fluorescence images were taken. On day 35 after the transplantation, tumor was resected, and the weight was measured. […] The mean tumor weight was approximately 50 mg for the group with administration of the peptide of the present invention (represented as DB in FIG. 6), and, by contrast, approximately 100 mg to 110 mg for the other two groups."}, "C16orf74 protein dimer [2]": {"target": "T1, C16orf74 protein dimer (Homo sapiens, UniProt Q96GX8)", "T1 sequence (Q96GX8 whole entry)": "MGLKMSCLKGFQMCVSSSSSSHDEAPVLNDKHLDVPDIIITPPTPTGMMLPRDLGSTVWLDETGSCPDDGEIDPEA", "test": "Inhibition of dimer formation of C16orf74 protein in human pancreatic cancer cells and NHDFs (FIG. 3)", "type": "cell-based", "parameters": "PK-1 and PK-9 (C16orf14 high expression) are compared to Panc1 and Miapaca2 (low expression); endogenous in cells; host or cells: PK-1, PK-9, Panc-1, Miapaca-2, NHDF", "experimental": "The same experiment as the above (3) was conducted by using the peptide RRRRRRRRRRR-GGG-MGLKMSCLKGFQMCV (SEQ ID NO: 4) (represented as 11R-C16orf74-DB in FIG. 3(a)), the peptide RRRRRRRRRRR-GGG-MGLKMSALKGFQMAV (SEQ ID NO: 7) (represented as 11R-C16orf74 C7A-C14A in FIG. 3(b)), and the peptide RRRRRRRRRRR-GGG-MGLKMAAAKGFQAAA (SEQ ID NO: 8) (represented as 11R-C16orf74-6-8A-13-15A in FIG. 3(c)) with different concentrations to examine inhibition of the dimer formation of C16orf74 protein. For the cells, four types of human pancreatic cancer cells (PK-1, PK-9, Panc-1, Miapaca-2) and normal human dermal fibroblasts (NHDFs) were used. The results are shown in FIGS. 3(a), 3(b), and 3(c), which are 24 hour WST assays in which PK-1 and PK-9 (C16orf14 high expression) are compared to Panc1 and Miapaca2 (low expression). A p-value of p<0.05 was obtained at 30 μM."}, "C16orf74 protein dimer [3]": {"target": "T1, C16orf74 protein dimer", "test": "Inhibition of dimer formation of C16orf74 protein, pull-down assay in cotransfected HEK293T cells", "type": "cell-based", "settings": "40 μM peptide, 24 hours", "experimental": "Pull-down assay was used for this verification. HEK293T cells were cotransfected with a vector to express a protein of Flag-tagged C16orf74 protein (pCAGGS-C16orf74-3×Flag) and a vector to express a protein of HA-tagged C16orf74 protein (pCAGGS-C16orf74-HA), and 24 hours thereafter a cell lysate was obtained and immunoprecipitation was carried out with agarose beads with an HA antibody attached thereto. The resulting immunoprecipitate was subjected to electrophoresis, and blotted with a Flag antibody. Experiment was conducted in three parallel systems. In the figure, MOCK represents a case that empty vectors of pCAGGS were provided with a Flag tag and an HA tag and HEK293T cells were cotransfected therewith. A band of the Flag-tagged C16orf74 protein was found at an intended level ([…]).\nHEK293T cells were transfected with pCAGGS-C16orf74-3×Flag and pCAGGS-C16orf74-HA, and cultured in the presence and absence of 40 μM of the peptide RRRRRRRRR-GGG-MGLKMSCLKGFQMCV (SEQ ID NO: 6) for 24 hours, and thereafter a band of the dimer was detected in the same manner as descried in (1)."}, "[4]": {"system": "PK-9 cells expressing luciferase (PK-9-td Tomato-luc2)", "test": "Tumor survival and nodulation in nude mice with peritoneally disseminated PK-9-td Tomato-luc2 cells", "type": "in vivo", "settings": "1 mg/kg/mouse five times per week, day 0 to day 35; imaging days 3-35", "experimental": "PK-9 cells expressing luciferase (PK-9-td Tomato-luc2) were intraperitoneally injected into each nude mouse (Balb/cA Jcl nu/nu mice, female, distributor: CLEA Japan, Inc.). During a period from the day of the peritoneal dissemination to day 35, the peptide of the present invention RRRRRRRRRRR-GGG-MGLKMSCLKGFQMCV (SEQ ID NO: 4), the peptide RRRRRRRRRRR-GGG-MGLKMAAAKGFQAAA (SEQ ID NO: 8), or PBS was injected into the subcutaneous tissue in the vicinity of tumor five times per week (1 mg/kg/mouse). On days 3, 7, 14, 21, 28, and 35 after the peritoneal dissemination, tumor was imaged. The number of nodules was counted at the end of the peptide administration period."}, "PK-9 cells": {"system": "PK-9 cells", "test": "Tumor growth in nude mice with subcutaneously injected PK-9 cells, peritumoral subcutaneous injection", "type": "in vivo", "settings": "10 mg/kg/mouse s.c. near tumor five times per week, 3 weeks", "experimental": "PK-9 cells were injected into the back of each nude mouse (Balb/cA Jcl nu/nu mice, female, distributor: CLEA Japan, Inc.). Two weeks after the injection, the peptide of the present invention RRRRRRRRRRR-GGG-MGLKMSCLKGFQMCV (SEQ ID NO: 4), the peptide RRRRRRRRRRR-GGG-MGLKMAAAKGFQAAA (SEQ ID NO: 8), or PBS was injected into the subcutaneous tissue in the vicinity of tumor five times per week (10 mg/kg/mouse). The administration period was 3 weeks. At the end of the administration period, tumor was resected and the tumor weight was measured. […] The mean tumor weight of the group with administration of the peptide of the present invention (SEQ ID NO: 4) was approximately 250 mg (group 11R-DB in FIG. 8)."}}, "note": "Residues, ends and D or L forms follow the SMILES beside them."}
{"compound": "CSCC[C@H](NC(=O)CNC(=O)CNC(=O)CNC(=O)[C@H](CCCNC(=N)N)NC(=O)[C@H](CCCNC(=N)N)NC(=O)[C@H](CCCNC(=N)N)NC(=O)[C@H](CCCNC(=N)N)NC(=O)[C@H](CCCNC(=N)N)NC(=O)[C@H](CCCNC(=N)N)NC(=O)[C@H](CCCNC(=N)N)NC(=O)[C@H](CCCNC(=N)N)NC(=O)[C@H](CCCNC(=N)N)NC(=O)[C@H](CCCNC(=N)N)NC(=O)[C@@H](N)CCCNC(=N)N)C(=O)NCC(=O)N[C@@H](CC(C)C)C(=O)N[C@@H](CCCCN)C(=O)N[C@@H](CCSC)C(=O)N[C@@H](CO)C(=O)N[C@@H](CS)C(=O)N[C@@H](CC(C)C)C(=O)N[C@@H](CCCCN)C(=O)NCC(=O)N[C@@H](Cc1ccccc1)C(=O)N[C@@H](CCC(N)=O)C(=O)N[C@@H](CCSC)C(=O)N[C@@H](CS)C(=O)N[C@H](C(=O)O)C(C)C", "note": "[SEQ ID NO: 4, RRRRRRRRRRR-GGG-MGLKMSCLKGFQMCV] (H-RRRRRRRRRRRGGGMGLKMSCLKGFQMCV-OH)", "values": [{"measurement": "body weight of the animals", "setting": "[1]", "result": "exhibited a higher increasing tendency than the other administration groups"}, {"measurement": "inhibition at 40 µM", "setting": "C16orf74 protein dimer [2]; MIA PaCa-2, Miapaca2 cells", "result": "≥ 60", "unit": "%"}, {"measurement": "inhibition at 40 µM", "setting": "C16orf74 protein dimer [2]; PANC-1, Panc1 cells", "result": "≥ 60", "unit": "%"}, {"measurement": "inhibition at 30 µM", "setting": "C16orf74 protein dimer [2]; PK9, PK-9 cells", "result": "~60", "unit": "%"}, {"measurement": "inhibition at 30 µM", "setting": "C16orf74 protein dimer [2]; PK-1 cells", "result": "~60", "unit": "%"}]}
{"compound": "RRRRRRRRRRR-GGG-MGLKMSALKGFQMAV (RRRRRRRRRRRGGGMGLKMSALKGFQMAV; fusion peptide) [SEQ ID NO: 7, control peptide, cysteine residues at 7th and 14th positions converted into alanine]", "values": [{"measurement": "inhibition of the dimer formation", "setting": "C16orf74 protein dimer [2]; PK-1 and PK-9 cells", "result": "the inhibition was weaker than in using 11R-C16orf74-DB"}, {"measurement": "inhibition of the dimer formation", "setting": "C16orf74 protein dimer [2]; Panc1, Miapaca2 and NHDFs", "result": "Almost no inhibition of the dimer formation was found"}]}
{"compound": "RRRRRRRRR-GGG-MGLKMSCLKGFQMCV (RRRRRRRRRGGGMGLKMSCLKGFQMCV; fusion peptide) [SEQ ID NO: 6, C16orf74 N-terminal 15 amino acids bonded to 9-arginine signal via a GGG tag]", "values": [{"measurement": "inhibition of dimer formation of C16orf74 protein (band of the dimer)", "setting": "C16orf74 protein dimer [3]", "result": "the dimer formation was inhibited"}]}
{"compound": "RRRRRRRRRRR-GGG-MGLKMAAAKGFQAAA (RRRRRRRRRRRGGGMGLKMAAAKGFQAAA; fusion peptide) [SEQ ID NO: 8, control peptide, cysteines 7 and 14 and their neighbouring residues converted into alanine]", "values": [{"measurement": "change over time in tumor fluorescence intensity", "setting": "[1]", "result": "exhibited increase in fluorescence intensity"}, {"measurement": "survival of tumor cells (tumor imaging)", "setting": "[4]", "result": "The survival of tumor cells was not suppressed"}, {"measurement": "course of tumor volume", "setting": "PK-9 cells", "result": "the tumor volume increased"}, {"measurement": "inhibition of the dimer formation", "setting": "C16orf74 protein dimer [2]; any of the cells (PK-1, PK-9, Panc-1, Miapaca-2, NHDFs)", "result": "no inhibition of the dimer formation was found"}]}
